# Measured values from publication PMC7891696, “The molecular targets of ivermectin and lotilaner in the human louse Pediculus humanus humanus: New prospects for the treatment of pediculosis” (PLoS Pathogens, 2021).
# Like-named read-outs stand apart in the source and are kept apart here.
# How the values were obtained:
# Phh-GluCl = Phh-GluCl (Pediculus humanus humanus, UniProt A0A894TL71); assay: Two-electrode voltage-clamp on Xenopus laevis oocytes expressing Phh-GluCl; assay type: cell-based
# Phh-GluCl, sequence (A0A894TL71 entry or part of it): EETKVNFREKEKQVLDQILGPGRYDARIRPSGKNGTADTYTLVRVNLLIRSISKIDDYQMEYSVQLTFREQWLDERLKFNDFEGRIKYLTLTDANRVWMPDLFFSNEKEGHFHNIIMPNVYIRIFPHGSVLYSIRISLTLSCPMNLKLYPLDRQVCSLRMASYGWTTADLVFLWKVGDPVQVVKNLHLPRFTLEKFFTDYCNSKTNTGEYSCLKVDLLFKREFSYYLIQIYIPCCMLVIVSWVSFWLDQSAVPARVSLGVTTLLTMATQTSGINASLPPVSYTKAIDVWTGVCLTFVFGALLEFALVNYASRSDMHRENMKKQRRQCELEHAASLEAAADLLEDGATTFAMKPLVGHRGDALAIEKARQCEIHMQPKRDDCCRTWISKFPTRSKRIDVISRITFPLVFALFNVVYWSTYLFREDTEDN
# Experimental: (§1) Defolliculated Xenopus laevis oocytes were purchased from Ecocyte Bioscience and maintained in incubation solution (100 mM NaCl, 2 mM KCl, 1.8 mM CaCl2.2H2O, 1 mM MgCl2.6H2O, 5 mM HEPES, 2.5 mM C3H3NaO3, pH 7.5 supplemented with penicillin 100 U/mL and streptomycin 100 μg/mL) at 19°C. Each oocyte was microinjected with 57 ng of cRNA encoding Phh-GluCl or Phh-RDL using a Drummond nanoject II microinjector. Three to five days after cRNA injection, two-electrode voltage-clamp recordings were performed with an oocyte clamp OC-725C amplifier (Warner instrument) at a holding potential of -80mV or -60 mV to assess the expression of the GluCl or RDL channels. Currents were recorded and analyzed using the pCLAMP 10.4 package (Molecular Devices). Concentration-response relationships for agonists were carried out by challenging oocytes with 10 s applications of increasing concentrations of compounds. […] For Phh-GluCl, the dose-response relationship for ivermectin was performed by applying each concentration of ivermectin for 20–30 s. Each oocyte received only one ivermectin concentration (≤ 30 nM) followed with a high ivermectin concentration (≥ 100 nM). Data were normalized to a first 100 μM glutamate apllication. […] Concentration-response curves for agonists were fitted with the following equation: Y=100/1+10^H(logEC50−X)
# nits of human body lice = assay: Nit hatching test; assay type: in vivo, Pediculus humanus humanus; settings: 100 μM, hatching between six and nine days after application, compared with water and 1% DMSO
# Experimental: (§2) The colony of human body lice (Pediculus humanus humanus) were provided by Kosta Y. Mumcuoglu from the Kuvin Center for the Study of Infectious and Tropical Diseases, Hebrew University-Hadassah Medical School, Jerusalem, Israel. This laboratory-reared colony adapted to rabbit blood were fed four times per week for 20–30 min on rabbits and maintained at 30 ± 1°C and 60–70% relative humidity without exposure to any drugs. […] Nits (50 to 190 per condition) were incubated with lotilaner or ivermectin and hatching was monitored between six and nine days. Water and solution of 1% DMSO were used as negative controls. Pictures were recorded with a Motic Digital Microscope 143 Series and the Motic Image Plus 3.0 software.
# Phh-RDL [1] = molecular target: T1, Phh-RDL (Pediculus humanus humanus, UniProt A0A894T8E6); assay: Two-electrode voltage-clamp on Xenopus laevis oocytes expressing Phh-RDL; assay type: cell-based; settings: for concentration at which GABA-elicited currents were completely inhibited: 100 μM GABA
# T1 sequence (A0A894T8E6 entry or part of it): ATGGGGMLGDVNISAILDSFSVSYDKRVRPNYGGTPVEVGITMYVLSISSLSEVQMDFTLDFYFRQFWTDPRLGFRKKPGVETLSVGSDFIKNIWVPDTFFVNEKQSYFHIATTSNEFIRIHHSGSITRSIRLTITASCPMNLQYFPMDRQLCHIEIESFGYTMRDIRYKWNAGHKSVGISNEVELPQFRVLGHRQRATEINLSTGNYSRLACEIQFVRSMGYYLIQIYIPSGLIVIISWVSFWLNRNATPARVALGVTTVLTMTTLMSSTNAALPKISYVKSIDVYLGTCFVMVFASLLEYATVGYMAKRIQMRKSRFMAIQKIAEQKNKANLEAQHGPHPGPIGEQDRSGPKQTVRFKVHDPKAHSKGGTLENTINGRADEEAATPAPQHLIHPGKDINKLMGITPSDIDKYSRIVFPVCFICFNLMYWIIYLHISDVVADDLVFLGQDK
# Experimental: as §1
# Where Y is the normalized response, H is the Hill slope and X is the logarithm of concentration. The same equation was used for the concentration-response curves for antagonists by replacing logEC50 by logIC50. Results are expressed as mean +/- SEM and statistical analysis were performed using One-Way ANOVA with Tukey’s Multiple Comparisons Test. […] The corresponding concentration response curves were fitted using the following four parameter Hill equation: Y=Bottom+(Top−Bottom)/1+10^H(LogEC50−X)
# [2] = system: human adult body lice (Pediculus humanus humanus); assay: Toxicity bioassay on adult human body lice (filter paper contact, survival and immobilization); assay type: in vivo; settings: for lice killed or immobilized (death or knockdown rate): adult lice n = 44
# Experimental: as §2
# Phh-RDL [3] = molecular target: T1, Phh-RDL; assay: Two-electrode voltage-clamp on Xenopus laevis oocytes expressing Phh-RDL; assay type: cell-based; settings: 1 μM ivermectin, 90 s application
# [4] = antagonism of 100 μM GABA current, 90 s preincubation, read-out: IC50
molecule,measurement,setting,value
Cc1cc(C2=NO[C@@](c3cc(Cl)c(Cl)c(Cl)c3)(C(F)(F)F)C2)sc1C(=O)NCC(=O)NCC(F)(F)F [lotilaner],concentration without effect on Phh-GluCl (30 μM) as multiple of the IC50 for Phh-RDL,Phh-GluCl; 30 μM,737 fold
same,agonist effect (current elicited),Phh-GluCl; 1 to 30 μM,did not elicit any current
same,inhibitory effect on glutamate-evoked currents,"Phh-GluCl; 1 to 30 μM, co-application with 100 μM glutamate",no significant inhibitory effect
same,effect on nit hatching,nits of human body lice,absence of efficacy
same,agonist effect,Phh-RDL [1],no agonist effect
same,type of inhibition,"Phh-RDL [1]; competitive assay, GABA dose-response with 1 nM and 10 nM lotilaner",non-competitive antagonist
same,IC50,Phh-RDL [1]; read-out: IC50,40.7 nM
same,lice killed,"[2]; 1 μM, 24 h, adult lice",14%
same,death rate of lice,"[2]; 100 μM, 3 h, adult lice",death of all lice
picrotoxin,agonist effect,Phh-RDL [1],no agonist effect
same,concentration at which GABA-elicited currents were completely inhibited,Phh-RDL [1],30 µM
same,IC50,Phh-RDL [1]; [4],1160 ± 230 nM
same,lice killed or immobilized (death or knockdown rate),"[2]; 100 μM, 24 h",not efficient to kill the lice
N#Cc1nn(-c2c(Cl)cc(C(F)(F)F)cc2Cl)c(N)c1[S+]([O-])C(F)(F)F (stereo not drawn) [fipronil],IC50,Phh-RDL [1],138 ± 35.1 nM
same,agonist effect,Phh-RDL [1],no agonist effect
same,lice killed or immobilized (death or knockdown rate),"[2]; 100 μM, 24 h",91%
N[C@@H](CCC(=O)O)C(=O)O [glutamate],EC50,Phh-GluCl,9300 nM
same,Hill coefficient,Phh-GluCl; glutamate concentration-response curve,1.9 +/- 0.5
ivermectin,lowest concentration at which slow activation of the receptor was observed,Phh-GluCl,10 nM
same,reversibility of the agonist effect,Phh-GluCl,not reversible
same,current as % of the 1 mM glutamate-elicited current,Phh-GluCl; 1 μM ivermectin,86.5 +/- 8.2%
same,EC50,"Phh-GluCl; agonist, normalized to a first 100 μM glutamate application, read-out: EC50",78.5 ± 30.2 nM
same,effect on nit hatching,nits of human body lice,absence of efficacy
same,IC50 on RDL receptor relative to EC50 for Phh-GluCl,Phh-RDL [1],4 fold
same,effect on GABA current at low concentration (potentiation),Phh-RDL [1]; 100 nM ivermectin coapplied with 3 μM GABA,increased the current amplitude
same,mode of action at higher concentration,Phh-RDL [1]; 1 μM ivermectin,both an agonistic and antagonistic effect
same,concentration at which GABA-elicited currents were completely inhibited,Phh-RDL [1],3 µM
same,reversibility of the currents elicited,"Phh-RDL [1]; 0.3 to 30 μM, 90 seconds",not reversible
same,IC50,Phh-RDL [1]; [4],342 ± 14 nM
same,death rate of lice,"[2]; 10 μM, 24 h, adult lice",100%
same,death rate of lice,"[2]; 100 μM, 3 h, adult lice",30%
same,lice killed or immobilized (death or knockdown rate),"[2]; 100 μM, 24 h",100%
same,maximum agonist effect as % of the 1 mM response,Phh-RDL [3],7.9 +/- 1.3%
"NCCCC(=O)O [GABA, γ-aminobutyric acid]",EC50,Phh-RDL [1],16000 nM
same,Hill coefficient,Phh-RDL [1]; GABA concentration-response curve,2.3 +/- 0.1
same,Emax,Phh-RDL [1]; read-out: maximum current amplitude,97.95 ± 0.69%
